Experimental data taken from ChEMBL document CHEMBL1150742, “Verrucofortine, a major metabolite of Penicillium verrucosum var. cyclopium, the fungus that produces the mycotoxin verrucosidin” (J Nat Prod, 1988).

What was measured:
Settings in all cases: in vivo
[1] = Toxicity in ip dosed mouse; assay type: organism-based
Mus musculus [2] = assay: Neurotoxicity in mouse assessed as distress at 160 mg/kg, ip; assay type: toxicity, organism-based; set-up: dose 160 mg/kg, route intraperitoneal
Mus musculus [3] = assay: Neurotoxicity in mouse assessed as tremorgenic activity at 160 mg/kg, ip; assay type: toxicity, organism-based; set-up: dose 160 mg/kg, route intraperitoneal
Mus musculus [4] = assay: Neurotoxicity in mouse assessed as ataxia at 160 mg/kg, ip; assay type: toxicity, organism-based; set-up: dose 160 mg/kg, route intraperitoneal
Mus musculus [5] = assay: Neurotoxicity in mouse assessed as labored breathing at 160 mg/kg, ip; assay type: toxicity, organism-based; set-up: dose 160 mg/kg, route intraperitoneal

SMILES | LD50 [1] | Activity (Mus musculus [2]) | Activity (Mus musculus [3]) | Activity (Mus musculus [4]) | Activity (Mus musculus [5])
COc1c(C)c([C@]2(C)O[C@H]2/C(C)=C/C(C)=C/[C@]2(C)O[C@H](C)[C@@]3(C)O[C@H]32)oc(=O)c1C [VERRUCOSIDIN] | 4 mg/kg |  |  |  | 
C=CC(C)(C)[C@@]12C[C@H]3C(=O)N[C@H](CC(C)C)C(=O)N3[C@H]1N(C(C)=O)c1ccccc12 [VERRUCOFORTINE] |  | Non-toxic | Non-toxic | Non-toxic | Non-toxic
